Laboratory results taken from EP4684787A1, “PHARMACEUTICAL COMPOSITION CONTAINING DIPEPTIDYL PEPTIDASE SMALL MOLECULE INHIBITOR” (Haisco Pharmaceuticals Pte. Ltd., priority 2023, dated 2024).

What was measured:
[1] = Pharmacokinetic Experiment in Rats; assay type: in vivo, SD rats; settings: Intravenous (1 mg/kg), rat plasma
Experimental: 1.1 Test animals: Male SD rats, ca. 220 g, 6-8 weeks old, 6 rats/compound. The rats were purchased from […] EXPERIMENTAL ANIMALS CO., LTD. 1.2 Test design: On the day of the test, 6 SD rats were randomly divided into groups according to body weight. The rats were fasted but had access to water for 12-14 hours one day before administration. The rats were fed 4 hours after administration. Table 9. Information for administration Vehicle for intravenous administration: 5% DMA + 5% Solutol + 90% Saline; Vehicle for oral gavage: 0.5% MC; control compound […] is namely Compound 2 in patent WO2015110826A1, and was prepared according to the method described in the patent. Rats were anesthetized with isoflurane before and after administration. Blood (0.1 ml) was collected by orbital blood collection and placed in EDTAK2 centrifuge tube. The blood sample was centrifuged at 5000 rpm at 4°C for 10 min. The plasma was collected. […] All samples were stored at -80° C till analysis and detection. Table 10. Pharmacokinetic parameters of test compounds in rat plasma

[2] = system: NE enzyme; settings: background statement, no data; cited from earlier work
[3] = system: LPS-induced acute lung injury; settings: background statement, no data; cited from earlier work

Cn1c(=O)oc2ccc(-c3ccc(C[C@@H](C#N)NC(=O)[C@@H]4CNCCCO4)c(F)c3)cc21 [Compound A, (S)-N-((S)-1-cyano-2-(2-fluoro-4-(3-methyl-2-oxo-2,3-dihydrobenzo[d]oxazol-5-yl)phenyl)ethyl)-1,4-oxazepane-2-carboxamide]
CL [1]: 1.66 mL/min/kg | Vdss [1]: 0.753 L/kg | NE enzyme activity in rat bone marrow [2]: significantly inhibit | LPS-induced acute lung injury in mice [3]: mitigate

Cn1c(=O)oc2ccc(-c3ccc(C[C@@H](C#N)NC(=O)[C@@H]4CNCCCO4)cc3)cc21 [INS 1007, reference compound]
CL [1]: 2.08 mL/min/kg | Vdss [1]: 0.738 L/kg
